Assay: Solubility of romidepsin in solvents
Type: physicochemical
Source text: In one embodiment, the romidepsin liquid concentrate for dilution is formulated in a solvent system. […] Solubility of romidepsin was studied in the following solvents and solvent mixtures: glycerin:EtOH (1:1); PEG 300; PEG 400; Tween 80:EtOH (1:1); dimethylacetamide (DMA); SolutolHS15:EtOH (1:1); NMP; Water; EtOH:PEG 400 (1:1); EtOH;water (4:6); EtOH; EtOH:PG (80:20); EtOH:PG (60:40); EtOH:PG (40:60); EtOH:PG (20:80); PG; EtOH:PG (40:60)+10% water; EtOH:PG (40:60)+butylated hydroxyanizole (BHA)/butylated hydroxytoluebe (BHT); and EtOH:PG (40:60)+ascorbic acid.

Solubility in water: practically insoluble in water
SMILES: C/C=C1\NC(=O)[C@H]2CSSCC/C=C/[C@H](CC(=O)N[C@H](C(C)C)C(=O)N2)OC(=O)[C@H](C(C)C)NC1=O [Romidepsin]
